Assay results reported in patent publication US10047078B2, “Aminothiazole compounds” (National Health Research Institutes, priority 2016, dated 2018).

Columns and labels:
Mia-paca2 tumor model = assay: Xenograft efficacy, Mia-paca2 tumor model; format: in vivo, nude mice; settings: PO 25 mg/kg
Protocol: (§1) Male nude mice (Nu-Fox1^nu) of 8 weeks old were purchased from BioLASCO (Taipei, Taiwan, R.O.C.). Human colorectal Colo205, pancreatic Mia-PaCa 2 tumor cells or MOLM-13, 32D-ITD/D835Y leukemia cells were inoculated subcutaneously at 1×10^6 cells each in the nude mice. All human cancer cells were detected as free of Mycoplasma spp before they were injected into animals. The tumor cells grow as xenograft tumors and the tumor size reached approximately 200-250 mm^3 in the nude mice ready for dose treatments. Test compounds were dissolved in 20% 2-hydroxypropy-β-cyclodextrin individually for oral gavage administrations to the nude mice. The tumor-bearing mice were treated with test compounds at various doses, 5 times a week for 2 weeks. Tumor sizes were measured by an electronic caliper and calculated with the formula: tumor size=length×width^2/2. Tumor size and animal body weight were measured twice a week before and after the tumor cell inoculation throughout the observation period. Uses of animals and experimental procedures thereof were approved by the Institutional Animal Care and Use Committee (IACUC) of the National Health Research Institutes.

[1] = Pharmacokinetics and oral bioavailability in mice; settings: for AUC(0-inf) / bioavailability: male, ICR, mouse, plasma
Protocol: (§7) Male ICR mice weighing 25-35 g each were obtained from BioLASCO (Taiwan Co., Ltd, Ilan, Taiwan). The animal studies were performed according to the National Health Research Institutes (NHRI) institutional animal care and committee-approved procedures. […] A single dose at 10 mg/kg of each of these four compounds was administered orally (PO) to a total of 27 male mice. Each mouse was given 100 mL of the IV dosing solution by intravenous tail-vein injection and 200 mL of the PO dosing solution by oral gavage. Animals that received the IV dose were not fasted and that received the PO dose were fasted overnight prior to dosing. At 0 (immediately before dosing), 2 (IV only), 5 (IV only), 15 and 30 min and at 1, 2, 4, 6, 8, 16 and 24 h after dosing, blood (˜500 mL) was collected from groups of 3 mice at each time point by cardio puncture and stored in ice (0-4° C.). Ethylenediaminetetraacetic acid (EDTA) was used as the anticoagulant. Plasma was separated from the blood by centrifugation (3000 rpm for 15 minutes at 4° C. in a Beckman Model Allegra 6R centrifuge) and stored in a freezer (−20° C.). Control plasma was obtained from mice receiving no compound for use of constructing the standard curve and for the preparation of quality control (QC) samples. All samples were analyzed for the parent compound by LC-MS/MS.
(§8) Oral bioavailability, presented as a percentage (F %), was calculated from dividing the average area under the curve (AUC) value of a compound after PO dosing by the average AUC value of the compound after IV dosing following dose normalization.

[2] = tested on: xenografts FLT3-ITD-D835Y nude mice; assay: In vivo toxicity study, FLT3-ITD-D835Y model; settings: PO 25 mg/kg once daily; for Mortality (nude mice n = 8): 5 on 2 off × 2
Protocol: as §1
(§2) Compounds of formula (I) were tested in animals for their in vivo efficacy following the procedure described in EXAMPLE 24. Nine weeks old athymic nu/nu nude mice were administered orally at a once daily dose of 25, 50, 100, or 150 mg/kg on days 1-5 and 8-12.

[3] = tested on: xenografts Mia-paca2 nude mice; assay: In vivo toxicity study, Mia-paca2 model; settings: PO 25 mg/kg once daily; for Mortality (nude mice n = 6): 5 on 2 off × 2
Protocol: as §1, with “All human cancer cells were detected as free of Mycoplasma spp before they were injected into animals.” left out
(§3) Nine weeks old athymic nu/nu nude mice were administered orally at a once daily dose of 25, 50, 100, or 150 mg/kg on days 1-5 and 8-12.

[4] = tested on: xenografts FLT3-ITD-D835Y model; assay: Xenograft efficacy, FLT3-ITD-D835Y model; format: in vivo; settings: FLT3-ITD-D835Y xenograft in nude mice, PO 25 mg/kg
Protocol: as §1

in vivo = settings: male, ICR, mouse
Protocol: as §7, §8

[5] = tested on: xenografts colo205 nude mice; assay: In vivo toxicity study, colo205 model; settings: for Mortality (nude mice n = 6): 5 on 2 off × 2; for Tolerability: PO once daily, Compounds 1, 2, 3, 4, 6 at 50, 50, 100, 150 and 25 mg/kg
Protocol: as §1, with “All human cancer cells were detected as free of Mycoplasma spp before they were injected into animals.” left out
as §3

Colo205 xenografts = assay: Xenograft efficacy, Colo205 model; format: in vivo; settings: Colo205 xenografts in nude mice, 5 times a week for 2 weeks
Protocol: as §1

MOLM-13 xenografts = assay: Xenograft efficacy, MOLM-13 model; format: in vivo, nude mice; settings: starting tumor size ~250 mm^3
Protocol: as §1

32D-ITD/F691I cells = assay: MTS cell viability, 32D cells expressing FLT3-ITD mutant; format: cell-based, Murine; settings: 72-h incubation
Source text: (§4) The five leukemic 32D cell lines were purchased from American Type Culture Collection (ATCC, Manassas, Va., USA). Murine pro-B lymphocyte 32D cell lines were stably transfected with expression vectors that encoded human FLT3 containing an ITD mutation (32D-ITD cells), ITD and D835Y (32D-ITD/D835Y cells), ITD and D835V (32D-ITD/D835V cells), ITD and D835F (32D-ITD/D835F cells), and ITD and F691L (32D-ITD/F691L cells) mutations, which lead to constitutive activation of the FLT3 downstream signaling proteins. The cell viability was assessed with the MTS assay described in PLoS One, 2014, 9, e97116. 32D-ITD/D835Y, 32D-ITD/D835V, 32D-ITD/D835F, 32D-ITD/F691L, and 32D-ITD/F691I cells were seeded in 96-well plates at 1×10^4 cells/mL (100 μL per well) for 24-h incubation. Test compounds (at various concentrations in dimethyl sulfoxide (DMSO) were subsequently added to the culture medium for 72-h incubation. The cell viability was determined by the MTS assay (Promega, Madison, Wis., USA).

32D-ITD/D835F cells = assay: as above; format: cell-based, Murine; settings: 72-h incubation
Source text: as §4

32D-ITD/F691L cells = assay: as above; format: cell-based, Murine; settings: 72-h incubation
Source text: as §4

[6] = tested on: xenografts MOLM-13 nude mice; assay: In vivo toxicity study, MOLM-13 model; settings: for Mortality (nude mice n = 6 or 7): 5 on 2 off × 2; for Tolerability: PO once daily, Compound 2 at 25 and 50, Compound 4 at 150 mg/kg
Protocol: as §1, §2

TRK A = TRK A (Homo sapiens, UniProt P04629); assay: SelectScreen biochemical kinase profiling; format: binding; settings: 100 nM, read-out: Inhibition (% of control) at 100 nM
Sequence of TRK A (P04629 33-796): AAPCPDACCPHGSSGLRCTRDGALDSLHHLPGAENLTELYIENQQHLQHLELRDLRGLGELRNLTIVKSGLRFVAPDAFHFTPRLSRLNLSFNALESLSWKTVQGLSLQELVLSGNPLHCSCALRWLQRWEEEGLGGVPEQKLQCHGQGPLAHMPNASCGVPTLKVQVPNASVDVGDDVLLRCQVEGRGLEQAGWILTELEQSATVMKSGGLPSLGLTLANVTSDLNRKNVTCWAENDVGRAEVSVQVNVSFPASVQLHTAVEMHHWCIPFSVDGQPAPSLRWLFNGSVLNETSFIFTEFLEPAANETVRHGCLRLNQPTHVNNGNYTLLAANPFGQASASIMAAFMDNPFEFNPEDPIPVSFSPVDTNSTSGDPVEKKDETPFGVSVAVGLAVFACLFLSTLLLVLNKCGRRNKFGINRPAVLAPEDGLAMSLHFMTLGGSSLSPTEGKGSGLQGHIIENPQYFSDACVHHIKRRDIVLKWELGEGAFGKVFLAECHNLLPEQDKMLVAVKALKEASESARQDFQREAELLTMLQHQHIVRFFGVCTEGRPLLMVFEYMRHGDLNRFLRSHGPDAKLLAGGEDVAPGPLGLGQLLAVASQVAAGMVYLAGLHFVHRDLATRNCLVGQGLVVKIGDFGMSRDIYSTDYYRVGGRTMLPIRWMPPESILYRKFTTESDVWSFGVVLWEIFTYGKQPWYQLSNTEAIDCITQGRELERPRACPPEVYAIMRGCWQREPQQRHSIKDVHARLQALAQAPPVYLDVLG
Protocol: (§5) Kinase inhibition data were obtained from SelectScreen® Biochemical Kinase Profiling Service.
(§6) More specifically, test compounds were screened in 160 nL of a 1% DMSO solution in the well of a 384-well plate; kinase/antibody mixtures (8 μL) were diluted to a 2-fold working concentration in an appropriate kinase buffer (3.84 μL) and a 4-fold AlexaFluor® labeled tracer (4 μL) was prepared in the kinase buffer; incubation of test solutions was conducted at room is temperature for 60 minutes; and readout on a fluorescence plate reader was recorded and analyzed.

SRC = SRC (Homo sapiens, UniProt P12931); assay: SelectScreen biochemical kinase profiling; format: binding; settings: 100 nM, read-out: Inhibition (% of control) at 100 nM
Sequence of SRC (P12931 whole entry): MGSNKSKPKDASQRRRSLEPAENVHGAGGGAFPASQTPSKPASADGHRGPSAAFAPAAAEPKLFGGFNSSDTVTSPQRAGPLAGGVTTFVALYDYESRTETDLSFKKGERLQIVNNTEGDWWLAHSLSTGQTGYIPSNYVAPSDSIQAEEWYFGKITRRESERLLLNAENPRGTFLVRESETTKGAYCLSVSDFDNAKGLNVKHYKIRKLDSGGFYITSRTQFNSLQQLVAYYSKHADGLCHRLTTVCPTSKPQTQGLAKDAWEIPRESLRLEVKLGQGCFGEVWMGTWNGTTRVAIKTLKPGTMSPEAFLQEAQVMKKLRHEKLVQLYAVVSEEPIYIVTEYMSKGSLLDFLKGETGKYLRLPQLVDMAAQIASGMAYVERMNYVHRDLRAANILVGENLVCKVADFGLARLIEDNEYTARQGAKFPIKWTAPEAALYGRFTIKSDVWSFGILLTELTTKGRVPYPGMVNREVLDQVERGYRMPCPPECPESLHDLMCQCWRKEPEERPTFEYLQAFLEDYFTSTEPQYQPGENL
Protocol: as §5, §6

RET = RET (Homo sapiens, UniProt P07949); assay: SelectScreen biochemical kinase profiling; format: binding; settings: 100 nM, read-out: Inhibition (% of control) at 100 nM
Sequence of RET (P07949 29-1114): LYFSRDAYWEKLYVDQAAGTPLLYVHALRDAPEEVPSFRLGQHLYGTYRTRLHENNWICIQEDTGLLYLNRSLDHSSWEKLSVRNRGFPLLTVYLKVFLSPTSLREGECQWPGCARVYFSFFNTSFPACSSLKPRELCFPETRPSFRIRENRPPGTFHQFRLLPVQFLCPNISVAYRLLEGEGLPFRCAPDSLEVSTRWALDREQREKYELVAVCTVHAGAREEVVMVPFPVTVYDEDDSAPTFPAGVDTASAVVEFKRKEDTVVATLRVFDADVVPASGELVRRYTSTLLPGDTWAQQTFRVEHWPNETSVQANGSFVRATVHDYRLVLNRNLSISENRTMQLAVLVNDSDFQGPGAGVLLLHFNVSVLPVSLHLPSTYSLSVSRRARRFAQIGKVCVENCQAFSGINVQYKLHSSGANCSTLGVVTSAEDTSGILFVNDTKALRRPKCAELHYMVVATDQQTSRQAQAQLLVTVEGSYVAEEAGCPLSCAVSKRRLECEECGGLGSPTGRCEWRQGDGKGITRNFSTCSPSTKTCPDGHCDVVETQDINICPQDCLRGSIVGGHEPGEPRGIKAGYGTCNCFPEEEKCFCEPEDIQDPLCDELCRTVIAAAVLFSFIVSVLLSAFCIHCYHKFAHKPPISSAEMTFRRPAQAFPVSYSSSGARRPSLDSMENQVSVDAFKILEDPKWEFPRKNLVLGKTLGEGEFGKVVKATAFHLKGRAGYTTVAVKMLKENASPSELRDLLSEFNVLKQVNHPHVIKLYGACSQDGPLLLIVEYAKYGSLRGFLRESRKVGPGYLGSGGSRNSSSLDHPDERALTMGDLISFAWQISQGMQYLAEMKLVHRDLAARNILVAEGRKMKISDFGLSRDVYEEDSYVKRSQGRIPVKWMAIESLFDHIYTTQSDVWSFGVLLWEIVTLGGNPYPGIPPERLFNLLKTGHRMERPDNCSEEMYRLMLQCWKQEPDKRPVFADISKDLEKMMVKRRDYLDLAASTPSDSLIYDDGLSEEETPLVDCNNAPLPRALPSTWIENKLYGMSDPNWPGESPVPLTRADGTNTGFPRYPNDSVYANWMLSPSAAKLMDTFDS
Protocol: as §5, §6

KIT = KIT (Homo sapiens, UniProt P10721); assay: SelectScreen biochemical kinase profiling; format: binding; settings: 100 nM, read-out: Inhibition (% of control) at 100 nM
Sequence of KIT (P10721 26-976): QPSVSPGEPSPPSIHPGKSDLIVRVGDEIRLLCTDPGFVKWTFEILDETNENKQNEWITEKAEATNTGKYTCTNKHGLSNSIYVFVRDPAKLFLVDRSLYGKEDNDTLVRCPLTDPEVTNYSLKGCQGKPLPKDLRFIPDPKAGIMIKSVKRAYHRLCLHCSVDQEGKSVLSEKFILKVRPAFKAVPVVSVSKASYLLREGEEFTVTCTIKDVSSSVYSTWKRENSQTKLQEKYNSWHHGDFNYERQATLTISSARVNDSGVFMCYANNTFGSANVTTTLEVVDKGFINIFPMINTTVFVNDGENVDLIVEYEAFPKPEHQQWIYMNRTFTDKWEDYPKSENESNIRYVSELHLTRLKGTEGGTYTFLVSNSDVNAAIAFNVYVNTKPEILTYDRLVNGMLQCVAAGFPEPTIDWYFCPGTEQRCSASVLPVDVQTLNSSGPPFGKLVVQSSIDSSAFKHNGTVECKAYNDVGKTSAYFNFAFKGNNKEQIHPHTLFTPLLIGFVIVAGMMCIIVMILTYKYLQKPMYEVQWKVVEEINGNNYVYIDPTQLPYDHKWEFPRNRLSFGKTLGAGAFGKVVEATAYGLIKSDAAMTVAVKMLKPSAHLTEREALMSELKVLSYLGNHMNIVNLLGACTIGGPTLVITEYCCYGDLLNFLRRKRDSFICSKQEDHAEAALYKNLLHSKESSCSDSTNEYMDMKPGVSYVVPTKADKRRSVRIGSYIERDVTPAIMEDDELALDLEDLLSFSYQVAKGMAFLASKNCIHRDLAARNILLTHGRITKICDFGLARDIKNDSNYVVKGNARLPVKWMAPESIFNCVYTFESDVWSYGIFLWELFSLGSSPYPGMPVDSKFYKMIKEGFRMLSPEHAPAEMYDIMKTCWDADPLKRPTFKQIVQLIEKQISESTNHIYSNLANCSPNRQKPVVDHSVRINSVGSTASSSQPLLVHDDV
Protocol: as §5, §6

DDR1 = DDR1 (Homo sapiens, UniProt Q08345); assay: SelectScreen biochemical kinase profiling; format: binding; settings: 100 nM, read-out: Inhibition (% of control) at 100 nM
Sequence of DDR1 (Q08345 19-913): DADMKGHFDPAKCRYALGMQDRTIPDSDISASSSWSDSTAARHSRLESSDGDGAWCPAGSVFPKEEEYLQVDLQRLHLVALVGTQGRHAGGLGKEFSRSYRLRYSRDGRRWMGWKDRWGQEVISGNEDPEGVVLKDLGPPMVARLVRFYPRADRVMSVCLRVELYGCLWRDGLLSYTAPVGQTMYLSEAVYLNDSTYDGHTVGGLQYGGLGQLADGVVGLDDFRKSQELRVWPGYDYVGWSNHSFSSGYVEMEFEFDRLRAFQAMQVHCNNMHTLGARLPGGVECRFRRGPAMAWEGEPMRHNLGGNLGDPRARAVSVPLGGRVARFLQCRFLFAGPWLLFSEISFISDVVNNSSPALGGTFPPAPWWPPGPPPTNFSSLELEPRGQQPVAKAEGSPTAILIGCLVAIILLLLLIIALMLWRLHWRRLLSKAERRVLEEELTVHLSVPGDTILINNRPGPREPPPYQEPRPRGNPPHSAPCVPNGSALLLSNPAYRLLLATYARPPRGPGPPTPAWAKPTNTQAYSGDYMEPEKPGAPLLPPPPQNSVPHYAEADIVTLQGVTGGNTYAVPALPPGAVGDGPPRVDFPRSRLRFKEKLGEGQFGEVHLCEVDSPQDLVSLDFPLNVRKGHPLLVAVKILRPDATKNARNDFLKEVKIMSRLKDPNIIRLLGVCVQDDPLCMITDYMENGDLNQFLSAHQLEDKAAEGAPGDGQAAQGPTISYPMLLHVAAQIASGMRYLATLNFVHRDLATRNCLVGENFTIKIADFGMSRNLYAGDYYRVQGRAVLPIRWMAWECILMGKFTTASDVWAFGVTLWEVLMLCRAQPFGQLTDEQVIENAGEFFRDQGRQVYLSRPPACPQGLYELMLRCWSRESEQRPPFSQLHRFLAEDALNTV
Protocol: as §5, §6

TRK B = TRK B (Homo sapiens, UniProt Q16620); assay: SelectScreen biochemical kinase profiling; format: binding; settings: 100 nM, read-out: Inhibition (% of control) at 100 nM
Sequence of TRK B (Q16620 32-822): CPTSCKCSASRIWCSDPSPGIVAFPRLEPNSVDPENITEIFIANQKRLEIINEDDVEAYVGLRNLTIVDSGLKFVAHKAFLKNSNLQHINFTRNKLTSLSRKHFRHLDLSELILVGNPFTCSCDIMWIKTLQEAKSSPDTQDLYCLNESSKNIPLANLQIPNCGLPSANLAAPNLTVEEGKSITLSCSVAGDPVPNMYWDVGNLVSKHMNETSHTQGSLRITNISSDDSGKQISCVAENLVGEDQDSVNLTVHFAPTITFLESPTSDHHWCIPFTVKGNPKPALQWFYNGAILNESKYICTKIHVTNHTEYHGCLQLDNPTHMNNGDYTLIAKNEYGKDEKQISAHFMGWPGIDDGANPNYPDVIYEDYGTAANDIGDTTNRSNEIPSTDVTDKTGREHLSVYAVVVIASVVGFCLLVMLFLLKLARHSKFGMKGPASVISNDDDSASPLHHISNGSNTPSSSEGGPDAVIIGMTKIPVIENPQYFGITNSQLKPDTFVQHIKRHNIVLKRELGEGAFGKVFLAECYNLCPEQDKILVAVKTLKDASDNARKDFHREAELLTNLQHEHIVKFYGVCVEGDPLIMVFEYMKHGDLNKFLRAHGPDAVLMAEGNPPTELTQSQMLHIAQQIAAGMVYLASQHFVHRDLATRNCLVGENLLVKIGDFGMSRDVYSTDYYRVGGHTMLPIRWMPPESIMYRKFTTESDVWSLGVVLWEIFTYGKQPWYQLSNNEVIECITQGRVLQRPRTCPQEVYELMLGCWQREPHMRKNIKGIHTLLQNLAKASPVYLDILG
Protocol: as §5, §6

PDGFR A = PDGFR A (Homo sapiens, UniProt P16234); assay: SelectScreen biochemical kinase profiling; format: binding; settings: 100 nM, read-out: Inhibition (% of control) at 100 nM
Protocol: as §5, §6

ABL1 T315I = ABL1 T315I (Homo sapiens, UniProt P00519, T315I); assay: SelectScreen biochemical kinase profiling; format: binding; settings: 100 nM, read-out: Inhibition (% of control) at 100 nM
Protocol: as §5, §6

PDGFR B = PDGFR B (Homo sapiens, UniProt P09619); assay: SelectScreen biochemical kinase profiling; format: binding; settings: 100 nM, read-out: Inhibition (% of control) at 100 nM
Protocol: as §5, §6

## CCc1cc(NC(=O)Nc2ccc(-c3cnc(Nc4cc(N5CCN(CCF)CC5)ncn4)s3)cc2)no1 [Compound 5, 1-(5-Ethylisoxazol-3-yl)-3-(4-(2-((6-(4-(2-fluoroethyl)piperazin-1-yl)pyrimidin-4-yl)amino)thiazol-5-yl)phenyl)urea]
Mia-paca2 tumor model
  Day 18 TGI: 65%
[1]; iv, 2 mg/kg
  AUC(0-inf): 2720 ng·h/mL
[1]; po, 10 mg/kg
  AUC(0-inf): 8240 ng·h/mL
  bioavailability: 67%
[2]
  Tolerability: well tolerated
  Mortality (nude mice n = 8): 0/8 (25 mg/kg)
[3]
  Tolerability: well tolerated
  Mortality (nude mice n = 6): 0/6 (25 mg/kg)
[4]
  Day 12 tumor regression: 22%

## CCc1cc(NC(=O)Nc2ccc(-c3cnc(Nc4cc(N5CCN(CCF)CC5)nc(C)n4)s3)cc2)no1 [Compound 6, 1-(5-Ethylisoxazol-3-yl)-3-(4-(2-((6-(4-(2-fluoroethyl)piperazin-1-yl)-2-methylpyrimidin-4-yl)amino)thiazol-5-yl)phenyl)urea]
In vivo; iv, 2 mg/kg
  AUC(0-inf): 1840 ng·h/mL
In vivo; po, 10 mg/kg
  AUC(0-inf): 7580 ng·h/mL
  bioavailability: 89%
Mia-paca2 tumor model
  Day 18 TGI: 68%
[3]
  Tolerability: well tolerated
  Mortality (nude mice n = 6): 0/6 (25 mg/kg)
[5]; PO 25 mg/kg once daily
  Mortality (nude mice n = 6): 0/6 (25 mg/kg)
[5]
  Tolerability: well tolerated
Colo205 xenografts; PO 25 mg/kg, 25 mg/kg
  Day 18 TGI: ~80%

## CCc1cc(NC(=O)Nc2ccc(-c3cnc(Nc4cc(N5CCN(CCO)CC5)ncn4)s3)cc2)no1 [Compound 4, 1-(5-Ethylisoxazol-3-yl)-3-(4-(2-((6-(4-(2-hydroxyethyl)piperazin-1-yl)pyrimidin-4-yl)amino)thiazol-5-yl)phenyl)urea]
MOLM-13 xenografts; PO 150 mpk
  Day 25 tumor size: 193 mm^3 (150 mpk)
[5]; PO 150 mg/kg once daily
  Mortality (nude mice n = 6): 0/6 (150 mg/kg)
[5]
  Tolerability: well tolerated
32D-ITD/F691I cells
  GI50: 19 nM
32D-ITD/F691I cells; Mus musculus, 32D, 72 h
  GI50: < 20 nM
32D-ITD/D835F cells
  GI50: 5.5 nM
32D-ITD/D835F cells; Mus musculus, 32D, 72 h
  GI50: < 6 nM
32D-ITD/F691L cells
  GI50: 12 nM
32D-ITD/F691L cells; Mus musculus, 32D, 72 h
  GI50: < 20 nM
[6]; PO 150 mg/kg once daily
  Mortality (nude mice n = 6 or 7): 0/6
[6]
  Tolerability: well tolerated
Colo205 xenografts; PO 150 mg/kg, 150 mg/kg
  Day 18 TGI: ~80%

## CCc1cc(NC(=O)Nc2ccc(-c3cnc(Nc4cc(OCCN5CCOCC5)ncn4)s3)cc2)no1 [Compound 3, 1-(5-Ethylisoxazol-3-yl)-3-(4-(2-((6-(2-morpholinoethoxy)pyrimidin-4-yl)amino)thiazol-5-yl)phenyl)urea]
[1]; iv, 2 mg/kg
  AUC(0-inf): 2070 ng·h/mL
[1]; po, 10 mg/kg
  AUC(0-inf): 11400 ng·h/mL
  bioavailability: 96%
TRK A
  inhibition at 0.1 µM: 69%
SRC
  inhibition at 0.1 µM: 66%
RET
  inhibition at 0.1 µM: 56%
KIT
  inhibition at 0.1 µM: 85%
DDR1
  inhibition at 0.1 µM: 77%
TRK B
  inhibition at 0.1 µM: 73%
PDGFR A
  inhibition at 0.1 µM: 79%
ABL1 T315I
  inhibition at 0.1 µM: 15%
PDGFR B
  inhibition at 0.1 µM: 92%
[5]; PO 100 mg/kg once daily
  Mortality (nude mice n = 6): 0/6 (100 mg/kg)
[5]
  Tolerability: well tolerated
Colo205 xenografts; PO 100 mg/kg, 100 mg/kg
  Day 18 TGI: ~80%

## CCc1cc(NC(=O)Nc2ccc(-c3cnc(Nc4cc(N5CCN(CC)CC5)ncn4)s3)cc2)no1 [Compound 2, 1-(5-Ethylisoxazol-3-yl)-3-(4-(2-((6-(4-ethylpiperazin-1-yl)pyrimidin-4-yl)amino)thiazol-5-yl)phenyl)urea]
MOLM-13 xenografts; PO 25 mpk
  Day 25 tumor size: 270 mm^3
MOLM-13 xenografts; PO 50 mpk
  Day 25 tumor size: 53 mm^3
[1]; iv, 2 mg/kg
  AUC(0-inf): 1440 ng·h/mL
[1]; po, 10 mg/kg
  AUC(0-inf): 2800 ng·h/mL
[1]; mice, PO 10 mg/kg vs IV 2 mg/kg, dose normalized
  F (%) oral bioavailability: 38%
[2]
  Tolerability: well tolerated
  Mortality (nude mice n = 8): 0/8 (25 mg/kg)
TRK A
  inhibition at 0.1 µM: 60%
SRC
  inhibition at 0.1 µM: 79%
RET
  inhibition at 0.1 µM: 94%
KIT
  inhibition at 0.1 µM: 67%
DDR1
  inhibition at 0.1 µM: 80%
TRK B
  inhibition at 0.1 µM: 72%
PDGFR A
  inhibition at 0.1 µM: 89%
PDGFR B
  inhibition at 0.1 µM: 80%
[5]; PO 50 mg/kg once daily
  Mortality (nude mice n = 6): 0/6 (50 mg/kg)
[5]
  Tolerability: well tolerated
32D-ITD/F691I cells; Mus musculus, 32D, 72 h
  GI50: 158 nM
32D-ITD/D835F cells
  GI50: 5.8 nM
32D-ITD/D835F cells; Mus musculus, 32D, 72 h
  GI50: < 6 nM
32D-ITD/F691L cells; Mus musculus, 32D, 72 h
  GI50: 14 nM
[6]; PO 25 or 50 mg/kg once daily
  Mortality (nude mice n = 6 or 7): 0/6
[6]
  Tolerability: well tolerated
[4]
  Day 12 tumor regression: 34%
Colo205 xenografts; PO 50 mg/kg, 50 mg/kg
  Day 18 TGI: ~80%
